Measurements: patent US12083165B2, “Thymosin alpha 1 for use in treatment of cystic fibrosis” (SciClone Pharmaceuticals International (SG) PTE. LTD., priority 2015, dated 2024)

Columns and labels:
[1] = test system: A. fumigatus-infected C57BL/6 and Cftr−/− mice; test: Th cytokines in lungs and transcription factors in draining thoracic lymph nodes (ELISA or RT-PCR); type: in vivo
Method: (§1) Mice. Wild-type (WT) inbred C57BL6 mice, 8 to 12 weeks old, were purchased from Charles River Breeding Laboratories (Calco, Italy). Genetically engineered homozygote Cftr^−/− mice (33) were bred at the Cystic Fibrosis core animal facility at San Raffaele Hospital, Milan, Italy. Experiments were performed following protocols approved by the institutional animal committee and in accordance with European Economic Community Council Directive as well as institutional animal care and use guidelines.
(§2) Infection and treatments. Mice were anesthetized by i.p. injection of 2.5% avertin (Sigma Chemical Co, St. Louis, MO) before intranasal instillation of 2×10^7 A. fumigatus (Af293) resting conidia/20 μl saline. For histology, paraffin-embedded tissue were stained with Periodic acid-Schiff (PAS), and BAL fluid collection was done as described (21, 22). Treatments were as follow: Tα1 and the scrambled polypeptide were supplied as purified (the endotoxin levels were <0.03 pg/ml, by a standard limulus lysate assay) sterile, lyophilized, acetylated polypeptide. The sequences were as follows: Ac-[…]O (Tα1) (SEQ ID NO:1) and Ac-[…]OH (scrambled peptide) (SEQ ID NO:2). The lyophilized powders were reconstituted in sterile water and 200 μg/kg/i.p. were given daily for 6 consecutive days beginning the day of the infection.
(§3) Reverse transcriptase-polymerase chain reaction (RT-PCR). Total RNA extraction and synthesis and PCR of cDNA were done on total lung cells as described (21, 22). Amplification efficiencies were validated and normalized against Gapdh. The thermal profile for SYBR Green real-time PCR was at 95° C. for 3 min, followed by 40 cycles of denaturation for 30 s at 95° C. and an annealing/extension step of 30 s at 60° C. Each data point was examined for integrity by analysis of the amplification plot. The mRNA-normalized data were expressed as relative mRNA in treated cells compared to that of unstimulated cells.
(§4) Cytokine determination by ELISA. Cytokine levels in lung homogenates from treated and untreated mice were determined by cytokine-specific ELISA (R&D Systems, Inc. Space Import-Export srl, Milan, Italy) as described (21, 22)
The inflammatory Th17 pathway is involved in CF lung inflammation (21, 22, 43) while the Th2 pathway is associated with CF fungal allergy (44). For the assessment of the effects of Tα1 on Th cell activation, levels of Th cytokines in the lungs and of the corresponding transcription factors in the draining thoracic lymph nodes have been measured in C57BL/6 and Cftr^−/− mice infected and treated with Tα1 as above. Tα1 decreased Th17 (decreased levels of IL-17A and of the Th17 transcription factor Rorc), Th2 (low IL-4 and Gata3) cell activation while promoting both Th1 (increased IFN-γ and Tbet) and Treg (increased IL-10 and Foxp3) cell activity. […] The cytokine levels were assessed in lung homogenates (by ELISA or RT-PCR) and the expression of the corresponding Th transcription factors (by RT-PCR) in the draining thoracic lymph nodes. The results shown represent pooled data from two experiments. n.d. not done. *P<0.05; **P<0.01; ***P<0.001.

[2] = test system: A. fumigatus-infected C57BL/6 and Cftr−/− mice; test: IL-1 cytokine levels in BAL by ELISA in CF mice with aspergillosis; type: in vivo; details: 200 μg/kg/i.p. daily 6 days, 7 days post-infection
Method: as §1, §2, §4
C57BL/6 and Cftr^−/− mice were infected intranasally with live A. fumigatus conidia and treated with 200 μg/kg/i.p. Tα1 daily for 6 consecutive days beginning the day of the infection. […] The levels of IL-1β, IL-1α and IL-1RA in the BAL were measured by ELISA (pg/ml) at 7 days post-infection. The results shown represent pooled data from two experiments. *P<0.05; **P<0.01; ***P<0.001.

TMEM16A = TMEM16A mRNA expression by RT-PCR in HBE cells from control or CF patients; type: cell-based, human; details: 100 ng/ml
Method: as §3
Pharmacological correction of the ion transport defect by targeting of mutant CFTR, or alternative ion channels that may compensate for CFTR dysfunction, has long been considered as an attractive approach to a causal therapy of CF (37). […] Activation of TMEM16A with pharmacological agents could circumvent the primary defect in CF, irrespective of CFTR genotype (40). […] Based upon these findings, whether TMEM16A expression was induced by Tα1 on HBE cells from control or CF patients has been evaluated. To this purpose cells have been exposed to 100 ng/ml of Tα1 up to 24 hours and assessed TMEM16A mRNA expression by RT-PCR on total RNA from cells.

[3] = draining thoracic lymph nodes, RT-PCR
[4] = either type of mice (C57BL/6, Cftr−/−)

Ac-Ser-Asp-Ala-Ala-Val-Asp-Thr-Ser-Ser-Glu-Ile-Thr-Thr-Lys-Asp-Leu-Lys-Glu-Lys-Lys-Glu-Val-Val-Glu-Glu-Ala-Glu-Asn-O (Ac-SDAAVDTSSEITTKDLKEKKEVVEEAEN-OH; not fully specified; printed as Ac-Ser-Asp-Ala-Ala-Val-Asp-Thr-Ser-Ser-Glu-Ile-Thr-Thr-Lys-Asp-Leu-Lys-Glu-Lys-Lys-Glu-Val-Val-Glu-Glu-Ala-Glu-Asn-O; listed as Homo sapiens) [Tα1, naturally occurring polypeptide of 28 amino acid; supplied as purified sterile, lyophilized, acetylated polypeptide]
Foxp3 expression (Treg) [1, 3]: increased | Gata3 expression (Th2) [1, 3]: low | Tbet expression (Th1) [1, 3]: increased | Th17 transcription factor Rorc expression [1, 3]: decreased | IFN-γ level (Th1) ([1]; lung homogenates): increased | IL-4 level (Th2) ([1]; lung homogenates): low | IL-10 level (Treg) ([1]; lung homogenates): increased | IL-17A level (Th17) ([1]; lung homogenates, infected and Tα1-treated C57BL/6 and Cftr−/− mice): decreased | levels of the inflammatory-blocking cytokine IL-1RA in the BAL [2]: increased | levels of IL-1α in the BAL [2, 4]: sharply decreased | levels of IL-1β in the BAL [2, 4]: sharply decreased | TMEM16A expression (TMEM16A; CF HBE cells, after 4 hours): markedly increased | TMEM16A expression (TMEM16A; CF HBE cells, at 24 hours): remains elevated | TMEM16A expression (TMEM16A; control HBE cells, after 4 hours): markedly increased | TMEM16A expression (TMEM16A; control HBE cells, at 24 hours): returned to baseline levels
